Laboratory results from patent publication US8288541B2, “Piperazine amide derivatives” (Hoffmann-La Roche Inc., priority 2007, dated 2012).

Legend:
[1] = biological target: T1, LXR beta (Homo sapiens, UniProt P55055); experiment: Radioligand binding assay (SPA), LXR beta LBD; settings: read-out: LXRbeta Binding IC50
T1 construct: human LXR beta (aa 155 to 460); unnamed tag ('tagged versions'); made in house; host or cells: E. coli BL21 (pLysS)
T1 sequence (P55055 155-460): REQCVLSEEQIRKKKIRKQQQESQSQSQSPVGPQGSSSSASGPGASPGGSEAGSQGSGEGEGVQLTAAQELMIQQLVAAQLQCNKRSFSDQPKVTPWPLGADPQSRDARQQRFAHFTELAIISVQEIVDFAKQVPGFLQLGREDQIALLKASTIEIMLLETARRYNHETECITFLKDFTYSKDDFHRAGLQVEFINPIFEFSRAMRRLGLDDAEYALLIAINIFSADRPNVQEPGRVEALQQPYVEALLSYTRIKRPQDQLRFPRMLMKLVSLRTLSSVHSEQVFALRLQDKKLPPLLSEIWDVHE
Description: (§1) The following tests were carried out in order to determine the activity of the compounds of the present invention. Background information on the performed assays can be found in: Nichols J S et al. “Development of a scintillation proximity assay for peroxisome proliferator-activated receptor gamma ligand binding domain”, Anal Biochem. 1998, 257: 112-119.
(§2) Mammalian expression vectors were constructed to express full-length human LXR alpha and LXR beta. Bacterial expression vectors were constructed to produce tagged versions of the ligand binding domains (LBD) of human LXR alpha (aa 164 to 447) and human LXR beta (aa 155 to 460). To accomplish this, the portions of the sequences encoding the LBDs were amplified from the full-length clones by PCR and then subcloned into the plasmid vectors. Final clones were verified by DNA sequence analysis (Willy et al., Genes Dev. 1995, 9:1033-45; Song et al., Proc Natl Acad Sci USA. 1994, 91:10809-13).
(§3) Induction, expression, and purification of LBD proteins were performed in E. coli strain BL21 (pLysS) cells by standard methods (Ref: Current Protocols in Molecular Biology, Wiley Press, edited by Ausubel et al).
(§4) Radioligand Binding Assay
(§5) LXR alpha and LXR beta receptor binding were assayed in buffer consisting of 50 mM HEPES, pH 7.4, 10 mM NaCl, 5 mM MgCl2. For each 96-well reaction, 500 ng of LXRα-LBD or 700 ng of LXR beta-LBD proteins were bound to 80 μg or 40 μg SPA beads respectively, in a final volume of 50 μl by shaking. The resulting slurry was incubated for 1 h at RT and centrifuged for 2 min at 1300×g. The supernatant containing unbound protein was removed, and the semi-dry pellet containing the receptor-coated beads was re-suspended in 50 μl of buffer. […] All binding assays were performed in 96-well plates and the amount of bound ligand was measured on a Packard TopCount using OptiPlates (Packard). Dose response curves were measured within a range of concentration from 10^−10 M to 10^−4 M.

[2] = biological target: T2, LXR alpha (Homo sapiens, UniProt Q13133); experiment: Radioligand binding assay (SPA), LXR alpha LBD; settings: LXRα-LBD, read-out: LXRalpha Binding IC50
T2 construct: human LXR alpha (aa 164 to 447); unnamed tag ('tagged versions'); made in house; host or cells: E. coli BL21 (pLysS)
T2 sequence (Q13133 164-447): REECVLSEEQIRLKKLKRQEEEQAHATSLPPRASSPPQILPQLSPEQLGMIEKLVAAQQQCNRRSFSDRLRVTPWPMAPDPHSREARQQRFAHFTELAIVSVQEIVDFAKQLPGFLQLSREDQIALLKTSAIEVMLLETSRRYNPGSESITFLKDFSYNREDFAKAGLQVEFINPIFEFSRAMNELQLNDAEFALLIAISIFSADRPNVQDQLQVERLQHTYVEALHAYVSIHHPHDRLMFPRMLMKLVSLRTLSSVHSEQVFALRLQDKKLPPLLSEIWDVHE
Description: as §1, §2, §3, §4, §5

melting point	IC50 [1]	IC50 [2]	SMILES
192 °C	–	–	COc1cccc(S(=O)(=O)N2CC[C@H](c3ccccc3)[C@H](C(=O)N3CCN(c4cc(C)ccc4C)CC3)C2)c1 (relative stereo) [Example 42, Cis-[4-(2,5-Dimethyl-phenyl)-piperazin-1-yl]-[-1-(3-methoxy-benzenesulfonyl)-4-phenyl-piperidin-3-yl]-methanone]
–	2.8 µM	15.6 µM	Cc1ccc(Cl)cc1N1CCN(C(=O)[C@@H]2CN(S(C)(=O)=O)CC[C@@H]2c2ccc(F)cc2F)CC1 (single isomer, unassigned) [Example 87, [4-(5-Chloro-2-methyl-phenyl)-piperazin-1-yl]-[(3S,4S) or (3R,4R)-4-(2,4-difluoro-phenyl)-1-methanesulfonyl-piperidin-3-yl]-methanone]
–	0.72 µM	18 µM	Cc1cc(F)ccc1N1CCN(S(=O)(=O)c2cccc(Cl)c2)CC1C(=O)N1CCN(c2cc(Cl)ccc2Cl)CC1 (stereo not shown) [Example 4, [4-(3-Chloro-benzenesulfonyl)-1-(4-fluoro-2-methyl-phenyl)-piperazin-2-yl]-[4-(2,5-dichloro-phenyl)-piperazin-1-yl]-methanone]
–	0.77 µM	4.1 µM	COc1cccc(S(=O)(=O)N2CCN(c3ccccc3)C(C(=O)N3CCN(c4cc(C)ccc4C)CC3)C2)c1 (stereo not shown) [Example 8, [4-(2,5-Dimethyl-phenyl)-piperazin-1-yl]-[4-(3-methoxy-benzenesulfonyl)-1-phenyl-piperazin-2-yl]-methanone]
